# Laboratory results published in patent publication US8163713B2, “Trehalose compound and pharmaceutical comprising the compound” (Otsuka Chemical Co., Ltd., priority 2006, dated 2012).
# Biological target: T1, human recombinant adenosine A3 receptors (Homo sapiens, UniProt P0DMS8)
# T1 construct: host or cells: CHO-K1 (Chinese hamster ovary K1 cells)
# T1 sequence (P0DMS8 1-318): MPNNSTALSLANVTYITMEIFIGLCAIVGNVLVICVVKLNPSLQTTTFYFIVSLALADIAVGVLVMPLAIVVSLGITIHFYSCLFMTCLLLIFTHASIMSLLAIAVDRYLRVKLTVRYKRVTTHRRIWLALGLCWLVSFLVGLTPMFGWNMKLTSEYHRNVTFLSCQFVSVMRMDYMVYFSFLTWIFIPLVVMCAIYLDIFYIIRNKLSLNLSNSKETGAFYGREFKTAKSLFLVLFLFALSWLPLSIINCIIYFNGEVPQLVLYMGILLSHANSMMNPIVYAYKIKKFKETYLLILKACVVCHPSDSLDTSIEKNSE
# Experiment: Test for affinity for adenosine A3 receptor ([125I]AB-MECA binding to CHO-K1 cell membranes)
# Conditions: for Affinity 10 μM: 10 μM trehalose compound; for Affinity 10 μM / Affinity 3 μM: 0.5 nM [125I]AB-MECA, 60 min, 25° C.; for Affinity 3 μM: 3 μM trehalose compound; for IC50: [125I]AB-MECA displacement
# Protocol: Specifically, ovarium K1 cells of a Chinese hamster (obtained from Euroscreen S. A.; hereunder referred to as “CHO-K1”) expressing human recombinant adenosine A3 receptors were cultured in a modified HEPES buffer free of Ca^2+ and Mg^2+. Subsequently, the cultured CHO-K1 was scraped and homogenized in 50 mM of ice-cooled Tris-HCl (pH 7.4). The resulting mixture was subjected to centrifugation at 48,000×g for 15 minutes to obtain a cell membrane pellet. The obtained cell membrane pellet was washed twice with another modified HEPES buffer, and then subjected again to centrifugation. The washed cell membrane pellet was suspended again in a small quantity of 50 mM Tris-HCl (pH 7.4).
# The concentration of the adenosine A3 receptor in the obtained cell membrane pellet was measured as follows. A 0.5 nM amount of [^125I] […] Thereafter, 50 mM of ice-cooled Tris-HCl (pH 7.4) was added thereto to halt the reaction, and then the cell membrane pellet was filtrated out using a glass fiber filter. The filtered cell membrane pellet was washed 3 times with an ice-cooled buffer so as to remove excessive ligands. The radioactivity in the resulting cell membrane pellet on a filter was measured using a scintillation counter (Type 1470 Automatic Counter; PerkinElmer, Inc.).
# Separately, in order to measure nonspecific bindings of [^125I] AB-MECA other than to an adenosine A3 receptor, 1 μM of […] (a selective radioagonist of A3 receptor N^6-(3-iodobenzyl)-5′-(N-[…]) adenosine) was further added to the obtained suspension of the cell membrane pellet, and the same measurement was carried out as in the aforesaid binding experiment. The average specific binding value of [^125I] AB-MECA to the adenosine A3 receptor was calculated based on the results obtained in the above experiment.
# Further, in a Comparative Example, the same measurement was carried out with respect to the compounds taught in Non-Patent Document 1 and Non-Patent Document 2 (in the chemical formula of Table 1, R^1=R^3=octyl, R^2=R^4=heptyl, X=X′=OH, and Y=Y′═O).
Structure (SMILES),Affinity 10 μM,Affinity 3 μM,IC50 [µM],Affinity 10 μM (listed as F-5),Affinity 10 μM (listed as F-6)
"CCCCCC[C@@H](O)[C@@H](CCCCC)C(=O)OC[C@H]1O[C@H](O[C@H]2O[C@H](COC(=O)[C@H](CCCCC)[C@H](O)CCCCCC)[C@@H](O)[C@H](O)[C@H]2O)[C@H](O)[C@@H](O)[C@@H]1O [Production Example F-1, 6,6′-bis-O-[(2R,3R)-3-hydroxy-2-pentylnonanoyl]-α,α′-trehalose]",97,56,2.61,,
"CCCCCC[C@H](O)[C@H](CCCCC)C(=O)OC[C@H]1O[C@H](O[C@H]2O[C@H](COC(=O)[C@@H](CCCCC)[C@@H](O)CCCCCC)[C@@H](O)[C@H](O)[C@H]2O)[C@H](O)[C@@H](O)[C@@H]1O [Production Example F-2, 6,6′-bis-O-[(2S,3S)-3-hydroxy-2-pentylnonanoyl]-α,α′-trehalose]",86,57,,,
"CCCCCC[C@H](O)[C@@H](CCCCC)C(=O)OC[C@H]1O[C@H](O[C@H]2O[C@H](COC(=O)[C@H](CCCCC)[C@@H](O)CCCCCC)[C@@H](O)[C@H](O)[C@H]2O)[C@H](O)[C@@H](O)[C@@H]1O [Production Example F-3, 6,6′-bis-O-[(2R,3S)-3-hydroxy-2-pentylnonanoyl]-α,α′-trehalose]",100,59,,,
"CCCCCCC(OC)C(CCCCC)C(=O)OCC1OC(OC2OC(COC(=O)C(CCCCC)C(CCCCCC)OC)C(O)C(O)C2O)C(O)C(O)C1O [Production Example F-7, 6,6′-bis-O-[(2R,3R)-3-methoxy-2-pentylnonanoyl]-α,α′-trehalose]",96,84,,,
"CCCCC(CCCC)C(=O)OC[C@H]1O[C@H](O[C@H]2O[C@H](COC(=O)C(CCCC)CCCC)[C@@H](O)[C@H](O)[C@H]2O)[C@H](O)[C@@H](O)[C@@H]1O [Production Example F-8, 6,6′-bis-O-(2-butylhexanoyl)-α,α′-trehalose]",72,14,,,
"CCCCCC(CCCCC)C(=O)OC[C@H]1O[C@H](O[C@H]2O[C@H](COC(=O)C(CCCCC)CCCCC)[C@@H](O)[C@H](O)[C@H]2O)[C@H](O)[C@@H](O)[C@@H]1O [Production Example F-9, 6,6′-bis-O-(2-pentylheptanoyl)-α,α′-trehalose]",99,97,0.459,,
"CCCCCCC(CCCCCC)C(=O)OCC1OC(OC2OC(COC(=O)C(CCCCCC)CCCCCC)C(O)C(O)C2O)C(O)C(O)C1O (stereo not drawn) [Production Example F-10, 6,6′-bis-O-(2-hexyloctanoyl)-α,α′-trehalose]",66,65,,,
"CCCCCCCC(CCCCC)C(=O)OC[C@H]1O[C@H](O[C@H]2O[C@H](COC(=O)C(CCCCC)CCCCCCC)[C@@H](O)[C@H](O)[C@H]2O)[C@H](O)[C@@H](O)[C@@H]1O (stereo partly drawn) [Production Example F-11, 6,6′-bis-O-(2-pentylnonanoyl)-α,α′-trehalose]",62,74,,,
"CCCCC[C@@H](O)[C@@H](CCCC)C(=O)OC[C@H]1O[C@H](O[C@H]2O[C@H](COC(=O)[C@@H](CCCC)[C@@H](O)CCCCC)[C@@H](O)[C@H](O)[C@H]2O)[C@H](O)[C@@H](O)[C@@H]1O [Production Example F-12, 6-O-[(2R,3R)-2-butyl-3-hydroxyoctanoyl]-6′-O-[(2S,3S)-2-butyl-3-hydroxyoctanoyl]-α,α′-trehalose]",48,,,,
"CCCCCC[C@@H](O)[C@@H](CCCCC)C(=O)NC[C@H]1O[C@H](O[C@H]2O[C@H](CNC(=O)[C@H](CCCCC)[C@H](O)CCCCCC)[C@@H](O)[C@H](O)[C@H]2O)[C@H](O)[C@@H](O)[C@@H]1O [Production Example F-15, 6,6′-bis-N-[(2R,3R)-3-hydroxy-2-pentylnonanoylamino]-6,6′-dideoxy-α,α′-trehalose]",69,29,,,
"CCCCCCC(OC)C(CCCCC)C(=O)NCC1OC(OC2OC(CNC(=O)C(CCCCC)C(CCCCCC)OC)C(O)C(O)C2O)C(O)C(O)C1O [Production Example F-16, 6,6′-bis-N-[(2R,3R)-3-methoxy-2-pentylnonanoylamino]-6,6′-dideoxy-α,α′-trehalose]",96,57,,,
"CCCCCCC(CCCCCC)C(=O)NCC1OC(OC2OC(CNC(=O)C(CCCCCC)CCCCCC)C(O)C(O)C2O)C(O)C(O)C1O (stereo not drawn) [Production Example F-17, 6,6′-bis-N-(2-hexyloctanoylamino)-6,6′-dideoxy-α,α′-trehalose]",,22,,,
"CCCCCCCC(CCCCC)C(=O)NCC1OC(OC2OC(CNC(=O)C(CCCCC)CCCCCCC)C(O)C(O)C2O)C(O)C(O)C1O (stereo not drawn) [Production Example F-18, 6,6′-bis-N-(2-pentylnonanoylamino)-6,6′-dideoxy-α,α′-trehalose]",89,33,,,

# Results, then the compound that gave them:
Affinity 10 μM,Affinity 3 μM,IC50 [µM],Affinity 10 μM (listed as F-5),Affinity 10 μM (listed as F-6),Structure (SMILES)
29,,,,,"CCCCCCCCC(O)C(CCCCCCC)C(=O)OCC1O[C@H](O[C@@H]2OC(COC(=O)C(CCCCCCC)C(O)CCCCCCCC)[C@@H](O)C(O)C2O)C(O)C(O)[C@@H]1O (some centres unmarked) [Comparative Example, reference compound]"
91,32,,,,"CCCCCC[C@@H](O)[C@H](CCCCC)C(=O)OC[C@H]1O[C@H](O[C@H]2O[C@H](COC(=O)[C@@H](CCCCC)[C@H](O)CCCCCC)[C@@H](O)[C@H](O)[C@H]2O)[C@H](O)[C@@H](O)[C@@H]1O [Production Example F-4, 6,6′-bis-O-[(2S,3R)-3-hydroxy-2-pentylnonanoyl]-α,α′-trehalose]"
,,,83,,"CCCCCCCC(O)C(CCCCCC)C(=O)OCC1OC(OC2OC(COC(=O)C(CCCCCC)C(O)CCCCCCC)C(O)C(O)C2O)C(O)C(O)C1O [Production Example F-5, 6,6′-bis-O-[(2R,3R)-2-hexyl-3-hydroxydecanoyl]-α,α′-trehalose]"
,,,,59,"CCCCCCCC(O)C(CCCCCC)C(=O)OCC1OC(OC2OC(COC(=O)C(CCCCCC)C(O)CCCCCCC)C(O)C(O)C2O)C(O)C(O)C1O [Production Example F-6, 6,6′-bis-O-[(2S,3S)-2-hexyl-3-hydroxydecanoyl]-α,α′-trehalose]"
97,54,2.75,,,"CCCCCC[C@@H](O)[C@@H](CCCCC)C(=O)OC[C@H]1O[C@H](O[C@H]2O[C@H](COC(=O)[C@@H](CCCCC)[C@@H](O)CCCCCC)[C@@H](O)[C@H](O)[C@H]2O)[C@H](O)[C@@H](O)[C@@H]1O [Production Example F-13, 6-O-[(2R,3R)-3-hydroxy-2-pentylnonanoyl]-6′-O-[(2S,3S)-3-hydroxy-2-pentylnonanoyl]-α,α′-trehalose]"
77,,,,,"CCCCCCC[C@@H](O)[C@@H](CCCCCC)C(=O)OC[C@H]1O[C@H](O[C@H]2O[C@H](COC(=O)[C@@H](CCCCCC)[C@@H](O)CCCCCCC)[C@@H](O)[C@H](O)[C@H]2O)[C@H](O)[C@@H](O)[C@@H]1O [Production Example F-14, 6-O-[(2R,3R)-3-hydroxy-2-hexyldecanoyl]-6′-O-[(2S,3S)-3-hydroxy-2-hexyldecanoyl]-α,α′-trehalose]"
